Where “and” joins values, the source holds several entries; their conditions need not be identical. Equal values may be shown once. Toxic doses and inconclusive results are not listed.
System: BDF1 mice, intracerebral L1210 leukemia, survival T/C
Test: NCI In Vivo Anticancer Drug Screen. Data for tumor model L1210 Leukemia (intracerebral) in B6D2F1 (BDF1) mice
Settings: higher = longer survival
How it was run: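 Antitumour effect is judged in mice with transplanted tumour by comparing survival of treated (T) against vehicle-dosed (C) groups as T/C.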

[1] = endpoint: mean survival time, dose: 1.0 mg/kg/injection, schedule: Q01DX009 (ip), vehicle: saline
[2] = endpoint: mean survival time, dose: 2.0 mg/kg/injection, schedule: Q01DX009 (ip), vehicle: saline
[3] = endpoint: mean survival time, dose: 31.0 mg/kg/injection, schedule: Q01DX001 (ip), vehicle: other

CS(=O)(=O)Nc1ccc(Nc2c3ccccc3nc3cc(N)ccc23)cc1
T/C [1]: 120 % of control | T/C (endpoint: mean survival time, dose: 1.0 mg/kg/injection, schedule: Q01DX009 (sc), vehicle: saline): 96 % of control | T/C [2]: 98 % of control | T/C (endpoint: mean survival time, dose: 2.0 mg/kg/injection, schedule: Q01DX009 (sc), vehicle: saline): 103 % of control | T/C (endpoint: mean survival time, dose: 4.0 mg/kg/injection, schedule: Q01DX009 (sc), vehicle: saline): 104 % of control

CCOC(=O)C1CCC(NC(=O)N(CCCl)N=O)CC1 (stereo not drawn)
T/C (endpoint: mean survival time, dose: 4.0 mg/kg/injection, schedule: Q01DX001 (ip), vehicle: other): 103 % of control and 113 % of control | T/C (endpoint: mean survival time, dose: 8.0 mg/kg/injection, schedule: Q01DX001 (ip), vehicle: other): 110 % of control | T/C (endpoint: mean survival time, dose: 14.0 mg/kg/injection, schedule: Q01DX001 (ip), vehicle: other): 118 % of control | T/C [3]: 179 % of control and 203 % of control | T/C (endpoint: mean survival time, dose: 33.0 mg/kg/injection, schedule: Q01DX001 (ip), vehicle: other): 169 % of control and 203 % of control | T/C (endpoint: mean survival time, dose: 44.0 mg/kg/injection, schedule: Q01DX001 (ip), vehicle: other): 225 % of control | T/C (endpoint: mean survival time, dose: 47.0 mg/kg/injection, schedule: Q01DX001 (ip), vehicle: other): 203 % of control and 239 % of control | T/C (endpoint: mean survival time, dose: 66.0 mg/kg/injection, schedule: Q01DX001 (ip), vehicle: other): 175 % of control and 303 % of control | T/C (endpoint: mean survival time, dose: 67.0 mg/kg/injection, schedule: Q01DX001 (ip), vehicle: other): 155 % of control | T/C (endpoint: mean survival time, dose: 70.0 mg/kg/injection, schedule: Q01DX001 (ip), vehicle: other): 151 % of control

O=NN(CCBr)C(=O)NCCBr
T/C (endpoint: mean survival time, dose: 133.0 mg/kg/injection, schedule: Q01DX001 (ip), vehicle: carboxymethylcellulose (CMC)): 112 % of control

O=c1cnn(C2OC(CO)C(O)C2O)c(=O)[nH]1 (stereo not drawn)
T/C (endpoint: mean survival time, dose: 750.0 mg/kg/injection, schedule: Q01DX Z (ip), vehicle: saline): 158 % of control

COc1cccc2c1C(=O)c1c(O)c3c(c(O)c1C2=O)C[C@@](O)(C(=O)CO)C[C@@H]3OC1CC(N)C(O)C(C)O1 (stereo partly drawn)
T/C (endpoint: mean survival time, dose: 0.05 mg/kg/injection, schedule: Q03HX024 (ip), vehicle: saline): 106 % of control | T/C (endpoint: mean survival time, dose: 0.1 mg/kg/injection, schedule: Q03HX024 (ip), vehicle: saline): 103 % of control | T/C (endpoint: mean survival time, dose: 0.2 mg/kg/injection, schedule: Q03HX024 (ip), vehicle: saline): 100 % of control | T/C (endpoint: mean survival time, dose: 0.4 mg/kg/injection, schedule: Q03HX024 (ip), vehicle: saline): 102 % of control | T/C (endpoint: mean survival time, dose: 0.5 mg/kg/injection, schedule: Q01DX005 (ip), vehicle: saline): 104 % of control | T/C (endpoint: mean survival time, dose: 0.5 mg/kg/injection, schedule: Q01DX009 (ip), vehicle: saline): 101 % of control | T/C (endpoint: mean survival time, dose: 0.5 mg/kg/injection, schedule: Q04DX003 (ip), vehicle: saline): 105 % of control | T/C (endpoint: mean survival time, dose: 0.8 mg/kg/injection, schedule: Q03HX024 (ip), vehicle: saline): 101 % of control | T/C (endpoint: mean survival time, dose: 1.0 mg/kg/injection, schedule: Q01DX005 (ip), vehicle: saline): 104 % of control | T/C [1]: 102 % of control | T/C (endpoint: mean survival time, dose: 1.0 mg/kg/injection, schedule: Q04DX003 (ip), vehicle: saline): 102 % of control | T/C (endpoint: mean survival time, dose: 2.0 mg/kg/injection, schedule: Q01DX005 (ip), vehicle: saline): 107 % of control | T/C [2]: 101 % of control | T/C (endpoint: mean survival time, dose: 2.0 mg/kg/injection, schedule: Q04DX003 (ip), vehicle: saline): 101 % of control | T/C (endpoint: mean survival time, dose: 4.0 mg/kg/injection, schedule: Q01DX005 (ip), vehicle: saline): 106 % of control | T/C (endpoint: mean survival time, dose: 4.0 mg/kg/injection, schedule: Q04DX003 (ip), vehicle: saline): 108 % of control | T/C (endpoint: mean survival time, dose: 8.0 mg/kg/injection, schedule: Q04DX003 (ip), vehicle: saline): 100 % of control

Cc1c(C)c(NC(=O)N(CCCl)N=O)c(C)c(C)c1NC(=O)N(CCCl)N=O
T/C (endpoint: mean survival time, dose: 15.5 mg/kg/injection, schedule: Q01DX001 (ip), vehicle: other): 102 % of control | T/C [3]: 98 % of control | T/C (endpoint: mean survival time, dose: 62.0 mg/kg/injection, schedule: Q01DX001 (ip), vehicle: other): 101 % of control | T/C (endpoint: mean survival time, dose: 250.0 mg/kg/injection, schedule: Q01DX001 (ip), vehicle: other): 171 % of control and 175 % of control | T/C (endpoint: mean survival time, dose: 375.0 mg/kg/injection, schedule: Q01DX001 (ip), vehicle: other): 182 % of control and 183 % of control | T/C (endpoint: mean survival time, dose: 500.0 mg/kg/injection, schedule: Q01DX001 (ip), vehicle: other): 172 % of control and 178 % of control | T/C (endpoint: mean survival time, dose: 501.0 mg/kg/injection, schedule: Q01DX001 (ip), vehicle: other): 93 % of control

COC(=O)c1ccccc1N=NN(C)C
T/C (endpoint: median survival time, dose: 10.0 mg/kg/injection, schedule: Q01DX009 (ip), vehicle: saline with Tween-80): 114 % of control | T/C (endpoint: median survival time, dose: 20.0 mg/kg/injection, schedule: Q01DX009 (ip), vehicle: saline with Tween-80): 97 % of control

Source: PubChem BioAssay AID252 (DTP/NCI, 2004)
